Reference: patent publication US9790202B2, “Anthranilamide derivatives as pesticides” (priority 2010, dated 2017)
Where two headings read alike, the source gives them in different places.

Tests used:
[1] = log P determination by HPLC on reversed-phase columns (C 18), acidic range; format: physicochemical
Method: The log P values reported in the table above and in the Preparation Examples were determined in accordance with EEC Directive 79/831 Annex V.A8 by HPLC (High Performance Liquid Chromatography) on reversed-phase columns (C 18), with the following methods:
The LC-MS determination in the acidic range is effected at pH 2.7 using 0.1% aqueous formic acid and acetonitrile (contains 0.1% formic acid) as eluents, linear gradient from 10% acetonitrile to 95% acetonitrile
The calibration was effected with unbranched alkan-2-ones (having 3 to 16 carbon atoms) with known log P values (log P values determined on the basis of the retention times by linear interpolation between two successive alkanones).

[2] = tested on: larvae of the mustard beetle (Phaedon cochleariae); test: Phaedon test (PHAECO spray treatment), Use Example 2; format: in vivo; settings: foliar, 168 h, read-out: efficacy in % (beetle larvae killed)
Method: Phaedon Test (PHAECO Spray Treatment)
(§1) Solvent: 78.0 parts by weight of acetone 1.5 parts by weight of dimethylformamide
(§2) Emulsifier: 0.5 part by weight of alkylaryl polyglycol ether
(§3) To produce an appropriate active ingredient formulation, 1 part by weight of active ingredient is mixed with the stated amounts of solvent and emulsifier, and the concentrate is diluted with emulsifier-containing water to the desired concentration.
Leaf discs of Chinese cabbage (Brassica pekinensis) are sprayed with an active ingredient formulation of the desired concentration and, after drying, populated with larvae of the mustard beetle (Phaedon cochleariae).
After 7 days, the efficacy in % is determined 100% means that all beetle larvae have been killed; 0% means that no beetle larvae have been killed.

[3] = tested on: caterpillars of the armyworm (Spodoptera frugiperda); test: Spodoptera frugiperda test (SPODFR spray treatment); format: in vivo; settings: Spodoptera frugiperda, foliar, 168 h, read-out: efficacy in % (caterpillars killed)
Method: Spodoptera frugiperda Test (SPODFR Spray Treatment)
as §1, §2, §3
Leaf discs of maize (Zea mays) are sprayed with an active ingredient formulation of the desired concentration and, after drying, populated with caterpillars of the armyworm (Spodoptera frugiperda).
After 7 days, the efficacy in % is determined 100% means that all caterpillars have been killed; 0% means that no caterpillars have been killed.

[4] = tested on: Lucilia cuprina 1st instar larvae; test: Lucilia cuprina test (LUCICU); format: in vivo; settings: 100 ppm, treated horsemeat, after 48 h
Method: Lucilia cuprina Test (LUCICU)
Species: Lucilia cuprina 1st larval stage (age: 24 hours)
Solvent: dimethyl sulphoxide
To prepare an appropriate active ingredient formulation, 10 mg of active ingredient are mixed with 0.5 ml of dimethyl sulphoxide and the concentrate is diluted with water to the desired concentration.
Vessels containing 1 cm^3 of horsemeat which had been treated with the active ingredient formulation are populated with about 20 Lucilia cuprina 1st instar larvae.
After 48 h, the kill in % is determined 100% means that all larvae have been killed; 0% means that no larvae have been killed.

[5] = tested on: green peach aphid (Myzus persicae); test: Myzus test (MYZUPE spray treatment); format: in vivo; settings: foliar, 144 h, read-out: efficacy in % (aphids killed)
Method: Myzus Test (MYZUPE Spray Treatment)
Solvent: 78 parts by weight of acetone 1.5 parts by weight of dimethylformamide
as §2, §3
Leaf discs of Chinese cabbage (Brassica pekinensis) infested by all stages of the green peach aphid (Myzus persicae) are sprayed with an active ingredient formulation of the desired concentration.
After 6 days, the efficacy in % is determined 100% means that all aphids have been killed; 0% means that no aphids have been killed.

[6] = reversed-phase C18 HPLC column, pH 2.7, HPLC reversed-phase C 18, pH 2.7, 0.1% aqueous formic acid / acetonitrile, read-out: LOGP (HCOOH)
[7] = 100 g/ha, spray on maize leaf discs, after 7 days
[8] = 100 g/ha, spray on Chinese cabbage leaf discs, after 7 days
[9] = 100 g/ha, spray on Chinese cabbage leaf discs, after 6 days

Compound	chromatographic logP ([1]; pH 2.7, LOGP (HCOOH))	pest or weed control at 100 g/ha ([2]; in Brassica rapa) [%]	pest or weed control at 100 g/ha ([3]; in Zea mays) [%]	pest or weed control at 100 g/ha ([5]; in Brassica rapa) [%]	chromatographic logP [1, 6]	pest or weed control at 100 g/ha [3, 7] [%]	other results
COC(=O)c1cc(C)c(NC(=O)c2cc(Cn3nnc(C(F)(F)F)n3)nn2-c2ncccc2Cl)c(C(=O)NC(C)C)c1 [Compound 3]	3.21	100	100	–	–	–	kill in % (larvae killed) [4]: 100%
C/C(=N\O)c1cc(C)c(NC(=O)c2cc(Cn3nnc(C(F)(F)F)n3)nn2-c2ncccc2Cl)c(C(=O)NC(C)(C)C)c1 [Compound 7]	3	–	100	100	–	–	kill in % (larvae killed) [4]: 100%
CNC(=O)c1cc(C(C)=O)cc(C)c1NC(=O)c1cc(Cn2nnc(C(F)(F)F)n2)nn1-c1ncccc1Cl [Compound 8]	2.53	–	100	–	–	–	–
CC(=O)c1cc(C)c(NC(=O)c2cc(Cn3nnc(C(F)(F)F)n3)nn2-c2ncccc2Cl)c(C(=O)NC(C)C)c1 [Compound 9]	2.94	–	100	–	–	–	–
CC(=O)c1cc(C)c(NC(=O)c2cc(Cn3nnc(C(F)(F)F)n3)nn2-c2ncccc2Cl)c(C(=O)NC2CC2)c1 [Compound 10]	2.73	–	100	–	–	–	–
CC(=O)c1cc(C)c(NC(=O)c2cc(Cn3nnc(C(F)(F)F)n3)nn2-c2ncccc2Cl)c(C(=O)NC(C)C2CC2)c1 (centres unmarked) [Compound 11]	3.23	100	100	–	–	–	–
CC(=O)c1cc(C)c(NC(=O)c2cc(Cn3nnc(C(F)(F)F)n3)nn2-c2ccccc2Cl)c(C(=O)NC(C)(C)C)c1 [Compound 12]	–	–	–	–	3.76	100	–
CC(=O)c1cc(C)c(NC(=O)c2cc(Cn3nnc(C(F)(F)F)n3)nn2-c2ccccc2Cl)c(C(=O)NC(C)C)c1 [Compound 13]	–	–	–	–	3.46	100	pest or weed control at 100 g/ha [2, 8]: 100%
CC(=O)c1cc(C)c(NC(=O)c2cc(Cn3nnc(C(F)(F)F)n3)nn2-c2ccccc2Cl)c(C(=O)NC(C)C2CC2)c1 (centres unmarked) [Compound 14]	–	–	–	–	3.74	100	–
CCNC(=O)c1cc(C(C)=O)cc(C)c1NC(=O)c1cc(Cn2nnc(C(F)(F)F)n2)nn1-c1ccccc1Cl [Compound 16]	–	–	–	–	3.27	100	–
CNC(=O)c1cc(C(N)=O)cc(C)c1NC(=O)c1cc(Cn2nnc(C(F)(F)F)n2)nn1-c1ncccc1Cl [Compound 17]	1.94	100	100	100	–	–	–
Cc1cc(C(N)=O)cc(C(=O)NC(C)(C)C)c1NC(=O)c1cc(Cn2nnc(C(F)(F)F)n2)nn1-c1ncccc1Cl [Compound 18]	2.5	100	100	90	–	–	–
Cc1cc(C(N)=O)cc(C(=O)NC(C)C)c1NC(=O)c1cc(Cn2nnc(C(F)(F)F)n2)nn1-c1ncccc1Cl [Compound 19]	2.27	100	100	–	–	–	–
Cc1cc(C(N)=O)cc(C(=O)NC2CC2)c1NC(=O)c1cc(Cn2nnc(C(F)(F)F)n2)nn1-c1ncccc1Cl [Compound 20]	2.11	83	100	–	–	–	–
Cc1cc(C(N)=O)cc(C(N)=O)c1NC(=O)c1cc(Cn2nnc(C(F)(F)F)n2)nn1-c1ncccc1Cl [Compound 21]	1.83	100	100	80	–	–	–
Cc1cc(C(N)=S)cc(C(=O)NC(C)(C)C)c1NC(=O)c1cc(Cn2nnc(C(F)(F)F)n2)nn1-c1ncccc1Cl [Compound 22]	2.89	100	100	90	–	–	–

Compound	chromatographic logP ([1]; pH 2.7, LOGP (HCOOH))	pest or weed control at 100 g/ha ([2]; in Brassica rapa) [%]	pest or weed control at 100 g/ha ([3]; in Zea mays) [%]	pest or weed control at 100 g/ha ([5]; in Brassica rapa) [%]	chromatographic logP [1, 6]	pest or weed control at 100 g/ha [3, 7] [%]	other results
CNC(=O)c1cc(C(N)=S)cc(C)c1NC(=O)c1cc(Cn2nnc(C(F)(F)F)n2)nn1-c1ccccc1Cl [Compound 24]	–	–	–	–	2.65	100	pest or weed control at 100 g/ha [5, 9]: 90%; pest or weed control at 100 g/ha [2, 8]: 100%
CNC(=O)c1cc(C(N)=S)cc(C)c1NC(=O)c1cc(Cn2nnc(C(F)(F)C(F)(F)F)n2)nn1-c1ncccc1Cl [Compound 25]	2.64	100	100	100	–	–	–
Cc1cc(C(N)=S)cc(C(=O)NC(C)(C)C)c1NC(=O)c1cc(Cn2nnc(C(F)(F)C(F)(F)F)n2)nn1-c1ncccc1Cl [Compound 26]	3.26	100	100	100	–	–	–
COC(=O)c1cc(C)c(NC(=O)c2cc(Cn3nnc(C(F)(F)C(F)(F)F)n3)nn2-c2ncccc2Cl)c(C(=O)NC(C)(C)C)c1 [Compound 27]	–	–	–	–	3.85	100	pest or weed control at 100 g/ha [5, 9]: 90%; pest or weed control at 100 g/ha [2, 8]: 100%
Cc1cc(C(=O)OCC2CC2)cc(C(=O)NC(C)(C)C)c1NC(=O)c1cc(Cn2nnc(C(F)(F)C(F)(F)F)n2)nn1-c1ncccc1Cl [Compound 28]	–	–	–	–	4.54	100	–
Cc1cc(C(=O)OCC2CCC2)cc(C(=O)NC(C)(C)C)c1NC(=O)c1cc(Cn2nnc(C(F)(F)F)n2)nn1-c1ncccc1Cl [Compound 29]	–	–	–	–	4.62	100	–
CNC(=O)c1cc(C(=O)OC)cc(C)c1NC(=O)c1cc(Cn2nnc(C(F)(F)F)n2)nn1-c1ccccc1Cl [Compound 30]	–	–	–	–	3.28	100	–
Cc1cc(C(=O)OC2CCC2)cc(C(=O)NC(C)(C)C)c1NC(=O)c1cc(Cn2nnc(C(F)(F)F)n2)nn1-c1ncccc1Cl [Compound 31]	–	–	–	–	4.37	–	–
Cc1cc(C2OCCO2)cc(C(=O)NC(C)(C)C)c1NC(=O)c1cc(Cn2nnc(C(F)(F)F)n2)nn1-c1ncccc1Cl [Compound 33]	3.22	–	100	100	–	–	–
CNC(=O)c1cc(-n2ccc(C(F)(F)F)n2)cc(C)c1NC(=O)c1cc(Cn2nnc(C(F)(F)F)n2)nn1-c1ncccc1Cl [Compound 34]	3.48	100	100	–	–	–	–
CNC(=O)c1cc(-n2ccc(C(F)(F)F)n2)cc(C)c1NC(=O)c1cc(Cn2nnc(C(F)(F)C(F)(F)F)n2)nn1-c1ncccc1Cl [Compound 35]	–	–	–	–	3.86	100	pest or weed control at 100 g/ha [2, 8]: 100%
CNC(=O)c1cc(-n2cncn2)cc(C)c1NC(=O)c1cc(Cn2nnc(C(F)(F)F)n2)nn1-c1ncccc1Cl [Compound 36]	2.25	100	100	100	–	–	–
CNC(=O)c1cc(-n2cncn2)cc(C)c1NC(=O)c1cc(Cn2nnc(C(F)(F)C(F)(F)F)n2)nn1-c1ncccc1Cl [Compound 37]	–	100	100	80	–	–	–
Cc1cc(C2OCCCO2)cc(C(=O)NC(C)(C)C)c1NC(=O)c1cc(Cn2nnc(C(F)(F)F)n2)nn1-c1ncccc1Cl [Compound 38]	3.37	–	100	–	–	–	–
Cc1cc(C2OCC(C)(C)CO2)cc(C(=O)NC(C)(C)C)c1NC(=O)c1cc(Cn2nnc(C(F)(F)F)n2)nn1-c1ncccc1Cl [Compound 39]	–	–	–	–	4.07	100	–
COC(=O)c1cc(C)c(N)c(C(=O)NC(C)(C)C)c1 [Example No. B, methyl 4-amino-3-(tert-butylcarbamoyl)-5-methylbenzoate]	–	–	–	–	–	–	chromatographic logP ([1]; reversed-phase C18 HPLC column, pH 2.7, Preparation Example, HPLC reversed-phase C 18, read-out: log P): 2.48
